Laboratory results reported in patent US20250034182A1, “PHOSPHOLIPID COMPOUNDS AND METHODS OF MAKING AND USING THE SAME” (priority 2021, published 2025).

Columns and labels:
Format in all cases: cell-based
[1] = test system: Human Rhinovirus 1B (HRV1B) in H1-HeLa cells; assay: H1-HeLa HRV-CTG EC50, HRV1B (Example Z); conditions: Rhinovirus A, 96 h, MOI 0.5, 4 days, Celltiter-Glo, read-out: HRV 1B HELA EC50 (nM) (per Ex. Z)
Outline: (§1)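 H1-HeLa cells (5,000/well) in DMEM with 2% FBS were infected with HRV1B, HRV14 or HRV16 at MOI 0.5, 1.0 and 0.25, respectively, with 10-point 1:3 compound dilutions. After 4 days at 37 °C, viability was read by CellTiter-Glo luminescence. EC50 was the concentration reducing viral replication by 50%, normalized to rupintrivir and DMSO controls.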

[2] = test system: Human Rhinovirus 14 (HRV14) in H1-HeLa cells; assay: H1-HeLa HRV-CTG EC50, HRV14 (Example Z); conditions: Rhinovirus B, HRV14, 96 h, MOI 1.0, 4 days, Celltiter-Glo, read-out: HRV14 HELA EC50 (nM) (per Ex. Z)
Outline: as §1

[3] = RSV NHBE CC50 384 V2 (per Ex. U); conditions: human
[4] = RSV HEP2-CC50-384-V2 (per Ex. V); conditions: human
[5] = test system: Respiratory syncytial virus recombinant with luciferase (RSV-Luc5) in NHBE cells; assay: NHBE RSV-Luc5 384-well assay (EC50 RSVFLUC NHBE-384, Example U); conditions: human respiratory syncytial virus, 72 h, read-out: RSV FLuc NHBE 384 EC50 (v2) (nM) (per Ex. U)
Outline: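 Passage-2 NHBE cells (5,000/well) on pre-spotted compounds, 10-point 1:3 series, infected with RSV-Luc5 at MOI 1 and incubated 3 days at 37° C. Replication read by One-Glo luminescence, normalized to remdesivir (0%) and DMSO (100%); EC50 = concentration reducing replication by 50%, by non-linear regression.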

[6] = test system: Human Rhinovirus 16 (HRV16) in H1-HeLa cells; assay: H1-HeLa HRV-CTG EC50, HRV16 (Example Z); conditions: Rhinovirus A, HRV16, 96 h, MOI 0.25, 4 days, Celltiter-Glo, read-out: HRV 16 HELA EC50 (nM) (per Ex. Z)
Outline: as §1

| SMILES | EC50 [1] | EC50 [2] | CC50 at 3 days [3] | CC50 at 3 days [4] | EC50 [5] | EC50 [6] |
| --- | --- | --- | --- | --- | --- | --- |
| CCCCCCCCCCCCCCCCCC[C@@H](COP(=O)(O)OC[C@@]1(C#N)O[C@@H](c2ccc3c(N)ncnn23)[C@H](O)[C@@H]1O)OCc1cc(F)cc(C#N)c1 [Compound 37, ((2R,3S,4R)-5-(4-aminopyrrolo[2,1-f][1,2,4]triazin-7-yl)-2-cyano-3,4-dihydroxytetrahydrofuran-2-yl)methyl ((S)-2-((3-cyano-5-fluorobenzyl)oxy)icosyl) hydrogen phosphate] | 332 nM | 183 nM | 3110 nM | > 38.1 µM | 82 nM | 249 nM |
| CCCCCCCCCCCCCCCC[C@@H](COP(=O)(O)OC[C@@]1(C#N)O[C@@H](c2ccc3c(N)ncnn23)[C@H](O)[C@@H]1O)OCc1cc(F)cc(C#N)c1 [Compound 79, ((2R,3S,4R,5S)-5-(4-aminopyrrolo[2,1-f][1,2,4]triazin-7-yl)-2-cyano-3,4-dihydroxytetrahydrofuran-2-yl)methyl ((S)-2-((3-cyano-5-fluorobenzyl)oxy)octadecyl) hydrogen phosphate] | 25 nM | 38 nM | 2100 nM | 38.1 µM | 19 nM | 70 nM |
| CCCCCCCCCCCCCCC[C@H](COP(=O)(O)OC[C@@]1(C#N)O[C@@H](c2ccc3c(N)ncnn23)[C@H](O)[C@@H]1O)OCc1cc(F)cc(C#N)c1 [Compound 80, ((2R,3S,4R,5S)-5-(4-aminopyrrolo[2,1-f][1,2,4]triazin-7-yl)-2-cyano-3,4-dihydroxytetrahydrofuran-2-yl)methyl ((R)-2-((3-cyano-5-fluorobenzyl)oxy)heptadecyl) hydrogen phosphate] | 49 nM | 88 nM | 2170 nM | > 50 µM | 36 nM | 111 nM |
| CCCCCCCCCCCCCCCCCCOC[C@H](COP(=O)(O)OC[C@@]1(C#N)O[C@@H](c2ccc3c(N)ncnn23)[C@H](O)[C@@H]1O)OCc1cc(F)cc(C#N)c1 [Compound 1, ((2R,3S,4R,5S)-5-(4-aminopyrrolo[2,1-f][1,2,4]triazin-7-yl)-2-cyano-3,4-dihydroxytetrahydrofuran-2-yl)methyl ((R)-2-((3-cyano-5-fluorobenzyl)oxy)-3-(octadecyloxy)propyl) hydrogen phosphate] | 4 nM | 8 nM | 2400 nM | > 31.2 µM | 54 nM | 8 nM |
| CCCCCCCCCCCCCCCCCCC[C@H](COP(=O)(O)OC[C@@]1(C#N)O[C@@H](c2ccc3c(N)ncnn23)[C@H](O)[C@@H]1O)OCc1ccc(-n2cncn2)c(C#N)c1 [Compound 30, ((2R,3S,4R)-5-(4-aminopyrrolo[2,1-f][1,2,4]triazin-7-yl)-2-cyano-3,4-dihydroxytetrahydrofuran-2-yl)methyl ((R)-2-((3-cyano-4-(1H-1,2,4-triazol-1-yl)benzyl)oxy)henicosyl) hydrogen phosphate] | 7 nM | 12 nM | 1720 nM | 33.1 µM | 14 nM | 11 nM |
| CCCCCCCCCCCCCCCCCCCC[C@@H](COP(=O)(O)OC[C@@]1(C#N)O[C@@H](c2ccc3c(N)ncnn23)[C@H](O)[C@@H]1O)OCc1cc(F)cc(C#N)c1 [Compound 70, ((2R,3S,4R)-5-(4-aminopyrrolo[2,1-f][1,2,4]triazin-7-yl)-2-cyano-3,4-dihydroxytetrahydrofuran-2-yl)methyl ((S)-2-((3-cyano-5-fluorobenzyl)oxy)docosyl) hydrogen phosphate] | 84 nM | 162 nM | 3950 nM | 43.5 µM | 165 nM | 114 nM |
| CCCCCCCCCCCCCCCCCCOC[C@H](COP(=O)(O)OC[C@@]1(C#N)O[C@@H](c2ccc3c(N)ncnn23)[C@H](O)[C@@H]1O)OCc1ccc(C#N)cc1OC [Compound 73, ((2R,3S,4R)-5-(4-aminopyrrolo[2,1-f][1,2,4]triazin-7-yl)-2-cyano-3,4-dihydroxytetrahydrofuran-2-yl)methyl ((R)-2-((4-cyano-2-methoxybenzyl)oxy)-3-(octadecyloxy)propyl) hydrogen phosphate] | 12 nM | 26 nM | 3820 nM | > 47 µM | 10 nM | 29 nM |
| CCCCCCCCCCCCCCCCCCOC[C@H](COP(=O)(O)OC[C@@]1(C#N)O[C@@H](c2ccc3c(N)ncnn23)[C@H](O)[C@@H]1O)OCc1ccc(C#N)c(Cl)c1 [Compound 7, ((2R,3S,4R,5S)-5-(4-aminopyrrolo[2,1-f][1,2,4]triazin-7-yl)-2-cyano-3,4-dihydroxytetrahydrofuran-2-yl)methyl ((R)-2-((3-chloro-4-cyanobenzyl)oxy)-3-(octadecyloxy)propyl) hydrogen phosphate] | 38 nM | 50 nM | 5960 nM | > 49.9 µM | 36 nM | 40 nM |
| CCCCCCCCCCCCCCCCCCOC[C@H](COP(=O)(O)OC[C@@]1(C#N)O[C@@H](c2ccc3c(N)ncnn23)[C@H](O)[C@@H]1O)OCc1cccc(C#N)n1 [Compound 68, ((2R,3S,4R)-5-(4-aminopyrrolo[2,1-f][1,2,4]triazin-7-yl)-2-cyano-3,4-dihydroxytetrahydrofuran-2-yl)methyl ((R)-2-((6-cyanopyridin-2-yl)methoxy)-3-(octadecyloxy)propyl) hydrogen phosphate] | 12 nM | 35 nM | 2060 nM | 42.8 µM | 9 nM | 20 nM |
| CCCCCCCCCCCCCCOC[C@H](COP(=O)(O)OC[C@@]1(C#N)O[C@@H](c2ccc3c(N)ncnn23)[C@H](O)[C@@H]1O)OCc1ccc(C#N)cc1F [Compound 75, ((2R,3S,4R,5S)-5-(4-aminopyrrolo[2,1-f][1,2,4]triazin-7-yl)-2-cyano-3,4-dihydroxytetrahydrofuran-2-yl)methyl ((R)-2-((4-cyano-2-fluorobenzyl)oxy)-3-(tetradecyloxy)propyl) hydrogen phosphate] | 23 nM | 37 nM | 4620 nM | > 48.5 µM | 12 nM | 37 nM |
| CCCCCCCCCCCCCCCCC[C@H](COP(=O)(O)OC[C@@]1(C#N)O[C@@H](c2ccc3c(N)ncnn23)[C@H](O)[C@@H]1O)OCc1cc(F)cc(C#N)c1 [Compound 36, ((2R,3S,4R,5S)-5-(4-aminopyrrolo[2,1-f][1,2,4]triazin-7-yl)-2-cyano-3,4-dihydroxytetrahydrofuran-2-yl)methyl ((R)-2-((3-cyano-5-fluorobenzyl)oxy)nonadecyl) hydrogen phosphate] | 102 nM | 113 nM | 2740 nM | > 50 µM | 51 nM | 112 nM |
